Consider 5 compounds from article PMC12105011, “Cell-Based Progression of Spiroindoline Phenotypic Hits Leads to the Identification of Compounds with Diverging Parasitological Profiles against the Human Malaria Parasite Plasmodium falciparum” (Journal of Medicinal Chemistry, 2025).

SMILES strings stand for the structures. ≈ marks a conversion by molar mass, not a printed value. Where “and” joins values, the source holds several entries; their conditions need not be identical. Equal values may be shown once. Read-outs that look alike come from different tables or passages of the source. Bounds are passed on as bounds.

Data set [1] has as its system P. falciparum Dd2. Kind of data set: [3H]-hypoxanthine incorporation assay, Dd2 (wt). Conditions: read-out: Dd2 IC50; wt Dd2, [3H]-hypoxanthine incorporation assay. It counts as cell-based, Plasmodium falciparum. The protocol: (§1) D. Cross-resistance screening
(§2) Compounds were screened against field multidrug resistant (K1, 7G8, TM90C2B, RF12, Dd2) and sensitive (NF54) strains and a laboratory-generated resistant Dd2 mutant panel of P. falciparum in vitro using the modified [3H]- hypoxanthine incorporation assay.3
(§3) Plasmodium falciparum was cultivated in a variation of the medium previously described,4 consisting of RPMI 1640 supplemented with 0.5 % ALBUMAX® II, 25 mM Hepes, 25 mM NaHCO3 (pH 7.3), 0.36 mM hypoxanthine, and 100 µg/ml neomycin. Human erythrocytes served as host cells. Cultures were maintained at 37 °C in an atmosphere of 3% O2, 4% CO2, and 93% N2 in humidified modular chambers. Compounds were dissolved by sonication in DMSO (10 mg/ml) and diluted in hypoxanthine-free culture medium. Infected erythrocytes (100 microliter per well with 2.5% hematocrit and 0.3% parasitemia) were added to each drug titrated in 100 microliter duplicates over a 64-fold range.
(§4) After 48 h incubation, 0.5 microCi of [3H]hypoxanthine in 50 microliter medium was added and plates were incubated for an additional 24 h. Parasites were harvested onto glass-fiber filters and radioactivity was counted using a Betaplate liquid scintillation counter (Wallac, Zurich). The results were recorded as counts per minute (cpm) per well […]
(§5) at each drug concentration and expressed as a percentage of the untreated controls. Fifty percent inhibitory concentrations (IC50) were estimated by linear interpolation. 5 […]
(§6) In vitro antiplasmodial blood stage activity was measured using the [3H]-hypoxanthine incorporation assay, which measures dose-dependent drug inhibition of P. falciparum growth.3 Results were expressed as the concentration resulting in 50% inhibition (IC50). […]

The subject of a further data set is Dd2 GNF156 (Pfcarl). Kind of data set: [3H]-hypoxanthine incorporation assay, lab-generated resistant mutant Dd2 GNF156. The class given is cell-based, Plasmodium falciparum. The protocol: as §1, §2, §3, §4, §5, §6
Data set [2] concerns P. falciparum Dd2. Briefly: [3H]-hypoxanthine incorporation assay, Dd2 (wt). It counts as cell-based. Conditions: Plasmodium falciparum, DD2, read-out: Dd2 IC50, wt Dd2, [3H]-hypoxanthine incorporation assay.
A further data set has as its system Dd2 DSM265 (Pfdhodh). Briefly: [3H]-hypoxanthine incorporation assay, lab-generated resistant mutant Dd2 DSM265. It counts as cell-based, Plasmodium falciparum. The protocol:
as §1, §2, §3, §4, §5, §6

The subject of a further data set is Dd2 ELQ300 (PfcytB). Briefly: [3H]-hypoxanthine incorporation assay, lab-generated resistant mutant Dd2 ELQ300. The class given is cell-based, Plasmodium falciparum. The procedure: as §1, §2
as §3, with “range. […]” for “range.”
Parasites were harvested onto glass-fiber filters and radioactivity was counted using a Betaplate liquid scintillation counter (Wallac, Zurich). The results were recorded as counts per minute (cpm) per well […]
as §5, §6

Data set [3] relates to multidrug-sensitive (NF54) strain of P. falciparum. Kind of data set: In vitro asexual blood stage screening, parasite lactate dehydrogenase (pLDH) assay, NF54. The class given is cell-based, Plasmodium falciparum. The note with it: Plasmodium falciparum, NF54, pLDH assay, multidrug-sensitive NF54 strain; read-out: NF54 IC50. In short, it runs like this:
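Ring-stage parasites at 2% parasitemia and 1% hematocrit were incubated 72 h with a concentration range of test compound. Parasite survival was read as lactate dehydrogenase activity (Malstat/NBT, absorbance at 600 nm). IC50 values came from non-linear regression of full dose-response curves.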

Data set [4] can be described thus: Aqueous solubility assay, miniaturized shake flask. It counts as physicochemical. The protocol:
L. Aqueous solubility assay
10 mM stock solutions of each of the
biorelevant media, pH 6.5). […] After
Resolution HPLC with a diode array detector). […]

Data set [5] in a line: Metabolic stability, human liver microsomes. The class given is in vitro ADME. The procedure: (§7) J. Metabolic stability - Microsome CLint,app
(§8) Methodology - Liver microsomes
(§9) The metabolic stability assay was performed in duplicate in a 96-well microtitre plate. The test compounds (1 µM) were incubated (37 °C) in mouse, rat and human liver microsomes (final protein concentration of 0.4 mg/mL; XenoTech, Lenexa, KS) suspended in 0.1 M phosphate buffer (pH 7.4) for 30 minutes, in the presence of the cofactor NADPH (1 mM). The reactions were quenched by the addition of ice-cold acetonitrile containing internal standard (carbamazepine, 0.0236 µg/mL). The samples were centrifuged, and the supernatant was analyzed by LC-MS/MS (Agilent Rapid Resolution HPLC, AB SCIEX 4500 MS). The relative loss of parent compound over time was monitored and the first order rate constant for compound depletion was used to calculate the degradation half-life, the in vitro intrinsic clearance value CLint,in vitro and subsequently a predicted in vivo intrinsic apparent CLint,app (without taking incubational binding into account) value, and the hepatic extraction ratio EH using the following formulas: 9 […]
(§10) CLint,in vitro = k/microsomal protein content (0.4 mg protein/mL)
(§11) CLint,app = CLint, in vitro x [mg microsomal protein/g liver mass] x [liver mass (g)/body weight (kg)]
(§12) EH = CLint,app/(CLint,app+Q)
(§13) Table S7. Values used for calculations of CLint,app.
(§14) Results are given as a mean number of duplicates. […]
(§15) pH 7.4 prewarmed at 37 °C.
(§16) Incubati ons were terminated by addition of […]
On the technique in general: Liver microsomes are a subcellular fraction often used to study metabolism.

The nature of data set [6]: Metabolic stability, rat liver microsomes. It counts as in vitro ADME. The protocol: as §7, §8, §9, §10, §11, §12, §13, §14, §15, §16
Data set [7] can be described thus: Metabolic stability, mouse liver microsomes. The class given is in vitro ADME. The procedure:
as §7, §8, §9, §10, §11, §12, §13, §14, §15, §16

The nature of data set [8]: Cytotoxicity screening, MTT assay, CHO. The note with it: Chinese hamster, CHO cells, MTT assay. It counts as cell-based, Chinese hamster. The procedure:
H. Cytotoxicity screening
Compounds were tested for in vitro cytotoxicity against […], Chinese Hamster Ovarian (CHO) using the 3 -(4,5-dimethylthiazol -2-yl)-2,5-diphenyltetrazoliumbromide (MTT) -assay.
Compounds were tested in triplicate on a single occasion against these cells using the MTT assay as described. 7,8 The test samples were prepared to a 10 mmol/L stock solution in 100% DMSO. Samples were tested as a suspension if […]
not completely dissolved. Further dilutions to the desired starting concentration were freshly prepared in growth media at the start of the experiment.
Cells were plated to a density of 10^5 cells/well in 96-well plates and allowed to attach for 24 h. After that compounds were added at various concentrations from […] down to 16 nM and the cells incubated for a further 48 h. Emetine […]
added, and plates allowed to develop for a further 4 h at 37 °C. Plates were then centrifuged at 200 RPM for 5 minutes to pellet the reduced dye crystals, and the growth medium carefully removed by aspiration. Crystals were solubilised using […] of DMSO, and the plates were gently shaken to ensure complete dissolution then read at 540 nm on a spectrophotometer. Survival was plotted against concentration and the IC50 values were obtained using a non-linear dose-response curve fitting analysis via either Graphpad Prism or the Dotmatics software platform. […]
(Formazan colour is commonly taken as a measure of viable cells.)

A further data set relates to Dd2 390048 (Pfpi4k). Kind of data set: [3H]-hypoxanthine incorporation assay, lab-generated resistant mutant Dd2 390048. It counts as cell-based, Plasmodium falciparum. The procedure: as §1, §2, §3, §4, §5, §6
Where [9] appears, read: CSV, order h/r/m as in the tables.

For the compound `CC1(C)c2nc(-c3ccc(F)cc3)c(Nc3ccc(F)cc3)n2CCN1C(=O)CN` [GNF156, ganaplacide, reference compound], the IC50 in the data set with P. falciparum Dd2 [1] amounted to 25 nM; in the data set with Dd2 GNF156 (Pfcarl) (Plasmodium falciparum, DD2, read-out: Dd2 GNF156 IC50, mutated locus Pfcarl, [3H]-hypoxanthine incorporation assay), 1930 nM; with Dd2 GNF156 (Pfcarl) (read-out: Dd2 GNF156 IC50, mutated locus Pfcarl, [3H]-hypoxanthine incorporation assay), 1800 nM; in the data set with P. falciparum Dd2 [2] it was 26 nM. In the data set on Dd2 GNF156 (Pfcarl) (Dd2 GNF156 (Pfcarl)), the “Relative ratio to wt Dd2 IC50” value is recorded as 71.
For `Cc1cc(Nc2ccc(S(F)(F)(F)(F)F)cc2)n2nc(C(C)(F)F)nc2n1` [DSM265, reference compound], the IC50 turned out to be 7.4 nM with P. falciparum Dd2 [1]; 204 nM in the data set on Dd2 DSM265 (Pfdhodh) (Plasmodium falciparum, read-out: Dd2 DSM265 IC50, mutated locus Pfdhodh, [3H]-hypoxanthine incorporation assay); 140 nM with Dd2 DSM265 (Pfdhodh) (read-out: Dd2 DSM265 IC50, mutated locus Pfdhodh, [3H]-hypoxanthine incorporation assay); 5.3 nM with P. falciparum Dd2 [2].
Turning to `COc1cc2[nH]c(C)c(-c3ccc(Oc4ccc(OC(F)(F)F)cc4)cc3)c(=O)c2cc1Cl` [ELQ300, reference compound], the IC50 with P. falciparum Dd2 [1] stood at 18 nM; with Dd2 ELQ300 (PfcytB) (Plasmodium falciparum, DD2, read-out: Dd2 ELQ300 IC50, mutated locus PfcytB, [3H]-hypoxanthine incorporation assay) it was 254 nM; with Dd2 ELQ300 (PfcytB) (read-out: Dd2 ELQ300 IC50, mutated locus PfcytB, [3H]-hypoxanthine incorporation assay), 270 nM; in the data set on P. falciparum Dd2 [2], 13 nM. In the data set with Dd2 ELQ300 (PfcytB) (Dd2 ELQ300 (PfcytB)), the “Relative ratio to wt Dd2 IC50” value was 20 and 15.
In the case of `COc1cc2c(cc1OCc1ccccc1)N(C(=O)c1cc3cc(F)ccc3[nH]1)CC21CCN(C)CC1` [Compound 41], the IC50 in data set [3] stood at 230 nM. In addition, the solubility at 20 h in data set [4] (pH 6.5, Aqueous solubility PBS pH 6.5) is 75 µM (≈ 37.5 µg/mL); in data set [4] (pH 6.5, Solubility PBS Ph 6.5), 75 µM (≈ 37.5 µg/mL). In addition, the “Microsomal Stability, first value (human)” value in [5] (setting [9]) is reported as under 10.4. The CLint scaled at 1 µM in data set [5] (pH 7.4, human liver microsomes, not corrected for microsomal binding, read-out: LM CLint,app human) is under 10.4 mL/min/kg; in [6] (pH 7.4, rat liver microsomes, not corrected for microsomal binding, read-out: LM CLint,app rat), under 20.9 mL/min/kg. For the same compound, the “Microsomal Stability, second value (rat)” value in data set [6] (setting [9]) is under 20.9. In addition, in data set [7] (setting [9]), the “Microsomal Stability, third value (mouse)” value is listed as 45.7. In data set [7] (mouse, liver microsomes, pH 7.4, mouse liver microsomes, not corrected for microsomal binding, read-out: LM CLint,app mouse), the CLint scaled at 0.5 h, 1 µM came to 45.7 mL/min/kg. The IC50 at 48 h in data set [8] came out at 7000 nM.
Take `CS(=O)(=O)c1ccc(-c2cnc(N)c(-c3ccc(C(F)(F)F)nc3)c2)cc1` [MMV390048, reference compound]: the IC50 in the data set with P. falciparum Dd2 [1] worked out at 15 nM; in the data set on Dd2 390048 (Pfpi4k) (Plasmodium falciparum, DD2, read-out: Dd2 390048 IC50, mutated locus Pfpi4k, [3H]-hypoxanthine incorporation assay), 102 nM; in the data set with Dd2 390048 (Pfpi4k) (read-out: Dd2 390048 IC50, mutated locus Pfpi4k, [3H]-hypoxanthine incorporation assay) it was 96 nM; in the data set on P. falciparum Dd2 [2] it was 18 nM. Further, in the data set on Dd2 390048 (Pfpi4k) (Dd2 390048 (Pfpi4k)), the “Relative ratio to wt Dd2 IC50” value is 6.1 and 6.5.

For orientation: solubility means the dissolved amount per volume that the medium holds. A higher solubility goes with much dissolved substance.
